Columns and labels:
[1] = tested on: Coptotermes lacteus; conditions: in vivo; cited from earlier work
[2] = tested on: Mastotermes darviniensis; conditions: in vivo; cited from earlier work
[3] = tested on: termites; conditions: limited by volatility of the compound; cited from earlier work
[4] = tested on: termites; conditions: ambient atmosphere; cited from earlier work
[5] = tested on: termites; conditions: extended feeding tests, e.g. greater than 30 days; cited from earlier work
[6] = tested on: Coptotermes formosanus Shiraki; conditions: in vivo; cited from earlier work
[7] = tested on: Coptotermes formosanus; test: Cellulose TLC plate feeding bioassay; assay type: in vivo; conditions: 2.23, 7.45 and 22.34 ugm sitosterol/mg cellulose, FIG. 4
Procedure: (§1) Termite workers (100 total) were removed from their storage tubs and placed in a smaller plastic Rubbermaid® tub (having a volume of 414 ml) that contained soil (with a 20% by weight moisture). These termites were allowed to acclimate to their new surroundings for 24 hours before the feeding bioassay began. Solutions of sitosterol in acetone (of 1.0 ugm/ul, […], or 10 ugm/ul, respectively) were applied to three different cellulose squares with a Hamilton syringe (of 100 micro-liters (ul) capacity), wherein the squares were provided on a single thin-layer chromatography (TLC) glass plate. For the three cellulose squares, each single cellulose square (of 13.43 mg of cellulose) was evenly wetted with 30 ul of only one of the solutions. Thus, a dose of one of 30 ugm, 100 ugm or 300 ugm of sitosterol was applied, respectively, to a corresponding one of the cellulose squares. Accordingly, the concentrations on these three cellulose squares were, respectively, 2.23 ugm sitosterol/mg cellulose (equivalently, […] sitosterol to cellulose), 7.45 ugm sitosterol/milligram (mg) cellulose (equivalently, 0.745% sitosterol to cellulose), and 22.34 ugm sitosterol/mg cellulose (equivalently, 2.23% sitosterol to cellulose). Note that a fourth cellulose square was treated with 30 ul of acetone as a control. […]

[8] = tested on: Reticulitermes tibialis; test: Paper feeding bioassay; assay type: in vivo; conditions: 0.60, 2.00 and 5.99 ugm sitosterol/mg paper bait substrate; 100 termites, FIG. 3
Procedure: The termites in the tub were allowed to acclimate to their new surroundings for 24 hours before the present feeding bioassay began. Each of three rectangular bait matrixes (each matrix being approximately 100 mg of bait substrate, the substrate being paper) was divided in two halves with a pencil line, each half having a 50.06 mg bait substrate upon which the termites were to feed. For each bait matrix, one half (the “experimental” half) was provided with a given sitosterol dose, and the other half was provided as a control, and accordingly had no sitosterol applied thereto. In particular, for each bait matrix, exactly one of three solutions of sitosterol in acetone (each solution having one of the concentrations: 1 ugm/ul, […], or 10 ugm/ul) was applied to the “experimental” half of the bait matrix with a Hamilton syringe (of 100 ul capacity), and only acetone was applied to the other (control) half as a control. More precisely, the experimental half of each bait matrix rectangle was evenly wetted with 30 ul of a different one of the solutions of sitosterol, thus applying on the experimental bait matrix half of each bait matrix a dose of only one of 30 ugm, 100 ugm or 300 ugm of sitosterol. The sitosterol concentrations tested were therefore 0.60, 2.00, and 5.99 ugm sitosterol/mg of bait substrate. […]

[9] = tested on: Reticulitermes tibialis; test: Field test of sitosterol cellulose pellets in underground termite jar traps; assay type: in vivo; conditions: pellet 1% sitosterol and 99% cellulose, 15 jar traps in the field, FIG. 1
Procedure: Sitosterol was tested in the field as a feeding stimulant for Reticulitermes tibialis. Sitosterol (300 mg) was dissolved in 30 ml of acetone and added to 30 gm of cellulose powder (from Bio-Serv Inc., Frenchtown, N.J.), and the combination was dried overnight. A hydraulic press (providing 15,000 pounds per square inch force) was used to make hard pellets (wherein each pellet was approximately 3 gm, 2.5 cm diameter, 5 mm thickness, having 1% sitosterol and 99% cellulose). Control pellets of cellulose powder alone (3 gm) were made similarly.
The pellets were tested in underground termite traps made from Nalgene jars (having dimensions of approximately 10 cm diameter, 10 cm height) with 3 mm holes drilled at 3 cm intervals to allow termites to enter each jar. The jar traps were filled with soil (20% moisture). Two pellets were placed on the surface of the soil both within and at the top of each jar trap, one pellet containing cellulose (3 gm) plus sitosterol […] and the other pellet containing only cellulose (3 gm).
One of the jar traps containing a 1% sitosterol pellet and a cellulose control pellet was placed at the base of a fence post that was previously determined to be infested with termites. The traps were checked once a week for feeding. When termite feeding was apparent, both pellets were removed and weighed to determine the amount of each pellet that had been eaten. […]

[10] = tested on: termites; test: Toxic effects of sitosterol to termites; conditions: in vivo
From the text: (§2) Several aspects of sitosterol make it a promising compound for enhancing Coptotermes formosanus, and Reticulitermes tibialis control. […] Termite baits are most frequently placed in the soil where moisture conditions are a factor; i.e., soil having at least 20% moisture, and/or occasionally saturated with water. […] Sitosterol has little toxic risk, and it has been tested in humans as an alternative method to lower plasma cholesterol levels. Sitosterol is an economically rational additive to a termite bait system. For example, the cost of the sitosterol needed to treat one termite bait roll of the size and proportion of paper (e.g., 10 cm by 100 cm) is about one cent to reach the concentration of our highest tested dose (300 ugm).

[11] = tested on: Reticulitermes tibialis; test: Cellulose TLC plate feeding bioassay; assay type: in vivo; conditions: every dose tested: 30, 100 and 300 ugm per cellulose square; 100 termites, up to 7 days, FIG. 2
Procedure: Such behavioral feeding bioassays were conducted using the following protocol.
as §1

[12] = Physical properties of sitosterol; assay type: physicochemical
From the text: as §2

[13] = tested on: termites; test: Feeding on bait matrix with chitin synthesis inhibitor added; assay type: in vivo; conditions: added to the bait matrix of the bioassays
Procedure: Note that Chitin synthesis inhibitors, such as hexaflumuron, were added to the bait matrix described in the bioassays above resulting in less feeding on the bait matrix treated with hexaflumuron compared to its control. […] Accordingly, it is believed that adding sitosterol to such a bait matrix may provide a way to overcome the termites' aversion to hexaflumuron.

## Oc1ccc(O)cc1 [Hydroquinone]
[1]
  feeding stimulation: stimulated feeding
[2]
  feeding stimulation: stimulated feeding
[3]
  duration of phagostimulatory effects: one month

## O=C=O [CO2, carbon dioxide]
[4]
  CO2 concentration attractive to termites: at least 0.2 % by volume

## N[C@H](CC(=O)O)C(=O)O [D-aspartic acid]
[5]
  toxicity to termites: has shown toxicity to termites
[6]
  feeding compared with a water control: fed upon more than a water control

## CC[C@H](CC[C@@H](C)[C@H]1CC[C@H]2[C@@H]3CC=C4C[C@@H](O)CC[C@]4(C)[C@H]3CC[C@]12C)C(C)C [sitosterol]
[7]
  feeding on cellulose squares having sitosterol versus control square: ate substantially more
[8]
  area of bait matrix half consumed versus control side: consumed substantially more than the control side
[9]
  amount of pellet eaten by the termites versus cellulose control pellet: more than twice as much
[10]
  toxic effects to termites: no toxic effects
[11]
  feeding on cellulose treated with sitosterol versus control square: fed significantly more
[12]
  stability and volatility: stable, nonvolatile
[12]; soil moisture/water
  hydrophobicity: hydrophobic compound which resists being washed off

## N[C@@H](CCC(=O)O)C(=O)O [L-glutamic acid]
[6]
  feeding compared with a water control: fed upon more than a water control

## O=C(NC(=O)c1c(F)cccc1F)Nc1cc(Cl)c(OC(F)(F)C(F)F)c(Cl)c1 [hexaflumuron]
[13]
  feeding on treated bait matrix compared to its control: less feeding

Source: US20050031581A1, “Termite feeding stimulant and method for using same” (priority 2001, published 2005)
